Assay results published in paper PMC7329864, “Role of water in cyclooxygenase catalysis and design of anti-inflammatory agents targeting two sites of the enzyme” (Scientific Reports, 2020).
Entries after “also recorded” stand apart in the source; their conditions may differ. Where two headings read alike, the source gives them in different places.

Legend:
wt COX-2 = biological target: T1, wt COX-2 (Homo sapiens, UniProt P35354); experiment: COX inhibitory enzyme immunoassay (COX-2); format: biochemical; details: for IC50: enzyme immunoassay, screened at 10^–4–10^–8 M, average of 3 experiments, SD ± 0.5 µM; for SI (IC50(COX-1)/IC50 (COX-2): selectivity index COX-1/COX-2
T1 construct: purchased Cayman Chemical Co. item no; 560131
T1 sequence (P35354 18-604): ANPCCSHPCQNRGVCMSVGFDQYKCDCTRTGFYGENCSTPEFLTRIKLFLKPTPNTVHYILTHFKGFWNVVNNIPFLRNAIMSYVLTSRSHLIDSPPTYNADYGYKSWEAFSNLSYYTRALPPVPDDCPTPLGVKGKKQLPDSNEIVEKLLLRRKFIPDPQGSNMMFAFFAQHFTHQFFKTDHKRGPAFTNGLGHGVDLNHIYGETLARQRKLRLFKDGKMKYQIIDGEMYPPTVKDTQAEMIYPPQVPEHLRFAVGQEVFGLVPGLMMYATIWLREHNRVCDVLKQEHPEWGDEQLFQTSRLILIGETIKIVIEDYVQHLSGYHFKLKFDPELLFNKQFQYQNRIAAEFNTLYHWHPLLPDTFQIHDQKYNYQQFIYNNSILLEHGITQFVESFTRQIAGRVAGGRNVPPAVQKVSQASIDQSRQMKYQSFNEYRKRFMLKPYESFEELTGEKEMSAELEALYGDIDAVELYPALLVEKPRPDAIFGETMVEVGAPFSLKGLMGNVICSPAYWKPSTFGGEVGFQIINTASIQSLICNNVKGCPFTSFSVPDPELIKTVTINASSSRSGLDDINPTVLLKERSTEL
Procedure: (§1) All the compounds of Fig. 9 were screened for COX-1/2 inhibitory activity in triplicate at 10^–4–10^–8 M concentration by performing enzyme immunoassays. The activity of the compounds was quantified in terms of amount of prostaglandins produced by the enzymes in the presence of different concentrations of the compound.
(§2) For studying the COX-1, COX-2 inhibitory activities of the compounds, various reagents were prepared as per the protocol of the assays. The compounds were screened in triplicate at 10^–4–10^–8 M concentration using the procedure as described in the previous report.

COX-1 = biological target: T2, COX-1 (Ovis aries, UniProt P05979); experiment: COX inhibitory enzyme immunoassay (COX-1); format: biochemical
T2 construct: purchased Cayman Chemical Co. item no; 560131
T2 sequence (P05979 25-600): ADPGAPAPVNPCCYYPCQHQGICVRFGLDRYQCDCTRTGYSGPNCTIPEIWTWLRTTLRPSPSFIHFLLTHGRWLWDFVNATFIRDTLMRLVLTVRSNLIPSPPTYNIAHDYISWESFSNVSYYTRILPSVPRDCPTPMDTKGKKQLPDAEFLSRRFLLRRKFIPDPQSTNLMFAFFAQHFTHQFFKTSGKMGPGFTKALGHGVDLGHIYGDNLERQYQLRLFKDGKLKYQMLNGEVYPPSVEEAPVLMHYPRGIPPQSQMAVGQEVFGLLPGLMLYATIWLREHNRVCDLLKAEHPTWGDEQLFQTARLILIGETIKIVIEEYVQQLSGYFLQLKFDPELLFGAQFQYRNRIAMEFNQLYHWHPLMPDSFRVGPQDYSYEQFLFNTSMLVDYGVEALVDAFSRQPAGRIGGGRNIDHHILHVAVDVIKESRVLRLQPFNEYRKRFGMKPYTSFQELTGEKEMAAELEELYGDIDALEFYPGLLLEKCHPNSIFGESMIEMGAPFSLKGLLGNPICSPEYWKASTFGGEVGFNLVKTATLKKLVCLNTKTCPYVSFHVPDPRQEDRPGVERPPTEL
Procedure: as §1, §2

COX-2 = biological target: T3, COX-2 (Homo sapiens, UniProt P35354); experiment: UV-Vis and fluorescence studies of interaction with COX-2; format: binding; details: addition of COX-2 in Tris–HCl buffer pH 7.25 to solution of compound
T3 sequence (P35354 18-604): T1 sequence (P35354 18-604)
From the text: In order to support in-silico experiments, the interactions of 1, 13d and 15d with COX-2 were checked with UV–vis and fluorescence spectral techniques. […] The appearance of level-off in the visible region (500–700 nm) was attributed to the Mie scattering due to the formation of aggregates. […] Corroborating the results of molecular modelling studies, the changes in the UV–Vis spectra as well as the fluorescence spectrum of the compound on addition of COX-2 probably occurred due to the HOMO–LUMO interactions between 1 and the enzyme (Figure S26). The linear Stern–Volmer plot of decrease in fluorescence intensity at 567 nm on increasing COX-2 concentration gave Stern–Volmer constant Ksv 3.30 × 10^4 M^-1. The detection limit of the compound for COX-2 was 0.02 nM (Figure S26C,D).
In order to support in-silico experiments, the interactions of 1, 13d and 15d with COX-2 were checked with UV-vis and fluorescence spectral techniques. […] The appearance of level-off in the visible region (500-700 nm) was attributed to the Mie scattering due to the formation of aggregates. […] Corroborating the results of molecular modelling studies, the changes in the UV-Vis spectra as well as the fluorescence spectrum of the compound on addition of COX-2 probably occurred due to the HOMO-LUMO interactions between 1 and the enzyme (Figure S27). The linear Stern-Volmer plot of decrease in fluorescence intensity at 567 nm on increasing COX-2 concentration gave Stern-Volmer constant Ksv 3.30x10^4 M^-1. The detection limit of the compound for COX-2 was 0.02 nM (Figure 27C, 27D).

[1] = enzyme immunoassay, screened at 10^–4–10^–8 M, average of 3 experiments, SD ± 0.5 µM, read-out: IC50 COX-1

Row | Structure (SMILES) | IC50 (wt COX-2) [nM] | SI (IC50(COX-1)/IC50 (COX-2) (wt COX-2) | IC50 (COX-1) [µM] | IC50 (COX-1; [1]) [µM] | decrease in fluorescence intensity (quenching) in the presence of COX-2 (COX-2)
1 | O=C1NC(=O)C(=Cc2cn(CCCCCn3c4ccccc4c(=O)c4ccccc43)c3ccccc23)C(=O)N1 [Compound 2, 5-((1-(5-(9-Oxoacridin-10(9H)-yl)pentyl)-1H-indol-3-yl)methylene)pyrimidine-2,4,6(1H, 3H, 5H)-trione] | 100 | 400 | 40 |  | 
2 | O=C1NC(=O)C(=Cc2cn(CCCn3c4ccccc4c(=O)c4ccccc43)c3ccccc23)C(=O)N1 [Compound 3, 5-((1-(3-(9-Oxoacridin-10(9H)-yl)propyl)-1H-indol-3-yl)methylene)pyrimidine-2,4,6 (1H, 3H, 5H)-trione] | 10000 | > 10 | > 100 |  | 
3 | CN1C(=O)C(=Cc2cn(CCCCCCn3c4ccccc4c(=O)c4ccccc43)c3ccccc23)C(=O)N(C)C1=O [Compound 4] | 2150 | 15 | 33 |  | 
4 | Cn1cc(/C=C2\C(=O)N(CCCCCCn3c4ccccc4c(=O)c4ccccc43)c3ccccc32)c2ccccc21 [Compound 5, (Z)-10-(6-(3-((1-Methyl-1H-indol-3-yl)methylene)-2-oxoindolin-1-yl)hexyl)acridin-9(10H)-one] | 150 | 350 |  | 53 | 
5 | Cn1cc(/C=C2\C(=O)N(CCCCCn3c4ccccc4c(=O)c4ccccc43)c3ccccc32)c2ccccc21 [Compound 6, (Z)-10-(5-(3-((1-Methyl-1H-indol-3-yl)methylene)-2-oxoindolin-1-yl)pentyl)acridin-9(10H)-one] | 350 | 160 |  | 60 | 
6 | Cn1cc(/C=C2\C(=O)N(CCCn3c4ccccc4c(=O)c4ccccc43)c3ccccc32)c2ccccc21 [Compound 7, (Z)-10-(3-(3-((1-methyl-1H-indol-3-yl)methylene)-2-oxoindolin-1-yl)propyl)acridin-9(10H)-one] | 22000 | > 4.5 |  | > 100 | 
7 | COc1cc(/C=C2\C(=O)N(CCCCCCn3c4ccccc4c(=O)c4ccccc43)c3ccccc32)cc(OC)c1O [Compound 8, (Z)-10-(6-(3-(4-Hydroxy-3,5-dimethoxybenzylidene)-2-oxoindolin-1-yl)hexyl)acridin-9(10H)-one] | 120 | 400 |  | 48 | 
8 | COc1cc(/C=C2\C(=O)N(CCCCCn3c4ccccc4c(=O)c4ccccc43)c3ccccc32)cc(OC)c1O [Compound 9, (Z)-10-(5-(3-(4-Hydroxy-3,5-dimethoxybenzylidene)-2-oxoindolin-1-yl)pentyl)acridin-9(10H)-one] | 230 | 250 |  | 52 | 
9 | COc1cc(/C=C2\C(=O)N(CCCn3c4ccccc4c(=O)c4ccccc43)c3ccccc32)cc(OC)c1O [Compound 10, (Z)-10-(3-(3-(4-Hydroxy-3,5-dimethoxybenzylidene)-2-oxoindolin-1-yl)propyl)acridin-9(10H)-one] | 12000 | > 8 |  | > 100 | 
10 | O=c1c2ccccc2n(CCCCCCBr)c2ccccc12 [Compound 13d, 10-(6-Bromohexyl)acridin-9(10H)-one] | 48500 | > 2 |  | > 100 | Small decrease; also recorded: much less
11 | O=Cc1cn(CCCCCCn2c3ccccc3c(=O)c3ccccc32)c2ccccc12 [Compound 15d, 1-(6-(9-Oxoacridin-10(9H)-yl)hexyl)-1H-indole-3-carbaldehyde] | 23500 | > 4 | > 100 |  | Small decrease; also recorded: much less
